According to patent US11542233B2, “Compounds, compositions and methods of use” (Aquinnah Pharmaceuticals, Inc., priority 2016, dated 2023):

Each compound was assayed on TDP-43 aggregation in PC12 cells stably expressing GFP-tagged mutant TDP-43 (TDP-43^Q33IK::eGFP) (assay: In vitro efficacy assay: inhibition of TDP-43 inclusions, concentration-response, fluorescence microscopy). Settings: PC12 cells, 1 hour pre-treatment, 15 μM sodium arsenite for 23 hours, 10-point dose response curve.
Assay type: cell-based
Protocol: Exemplary compounds of the invention were evaluated for efficacy in inhibiting TDP-43 inclusions using a concentration-response assay. Briefly, PC12 cells stably expressing a GFP-tagged mutant form of TDP-43 (TDP-43^Q33IK::eGFP) were pre-treated for 1 hour with exemplary compounds and stressed with 15 μM sodium arsenite for 23 hours to induce TDP-43 aggregation. The inhibitory effect on TDP-43 aggregation was measured using fluorescence microscopy. The ratio of cells with TDP-43 aggregates was calculated based on the total number of cells with detectable GFP expression. In the table, “A” indicates an IC50 of less than 100 nM, “B” indicates an IC50 range from 100 nM to 500 nM; “C” indicates an IC50 range from 500 nM to 2 μM; and “D” indicates an IC50 greater than 2 μM.

IC50 [nM]	Compound
< 100	CCN(C(=O)c1cc2ccccc2[nH]1)[C@H]1CCC[C@@H](NCc2cccc(F)c2)C1 [Compound 106, N-ethyl-N-((1S,3R)-3-((3-fluorobenzyl)amino)cyclohexyl)-1H-indole-2-carboxamide]

Same assay, conditions: Rattus norvegicus, PC-12, PC12 cells, 1 hour pre-treatment, 15 μM sodium arsenite for 23 hours, 10-point dose response curve

Compound	IC50 [nM]
CCN(C(=O)c1cc2ccccc2[nH]1)[C@H]1CCC[C@H](NCc2cccc(F)c2)C1 [Compound 107, N-ethyl-N-((1S,3S)-3-((3-fluorobenzyl)amino)cyclohexyl)-1H-indole-2-carboxamide]	500 to 2000
CCN(C(=O)c1cc2ncccc2[nH]1)[C@H]1CCC[C@@H](NCc2cc(C3CC3)no2)C1 [Compound 435]	< 100
CCN(C(=O)c1cc2ccccc2[nH]1)C1CCC[C@H](N[C@H]2CCc3ccccc32)C1 (some centres unmarked) [Compound 509]	> 2000
CCN(C(=O)c1nc2cc(S(C)(=O)=O)ccc2[nH]1)[C@H]1CCC[C@@H](NCc2ccccc2)C1 [Compound 540]	< 100
CCN(C(=O)c1cc2ccccc2[nH]1)[C@H]1CCC[C@@H](NCc2nc3ccccc3s2)C1 [Compound 451]	100 to 500
CCN(C(=O)c1nc2ccccc2[nH]1)[C@H]1CCC[C@@H](NCc2oc3ccccc3c2C#N)C1 [Compound 497]	< 100
O=C(c1cc2ccccc2[nH]1)N(CC(F)(F)F)[C@H]1CCC[C@@H](NCc2cccc(F)c2)C1 [Compound 170, N-((1S,3R)-3-((3-fluorobenzyl)amino)cyclohexyl)-N-(2,2,2-trifluoroethyl)-1H-indole-2-carboxamide]	< 100
CCN(C(=O)c1cc2ccccc2[nH]1)[C@H]1CCC[C@@H](NCc2nnc(C)s2)C1 [Compound 454]	< 100
[2H]C([2H])(N[C@@H]1CCC[C@H](N(CC)C(=O)c2nc3ccccc3[nH]2)C1)c1ccccc1 [Compound 522, N-ethyl-N-((1S,3R)-3-((phenylmethyl-d2)amino)cyclohexyl)-1H-benzo[d]imidazole-2-carboxamide]	< 100

Further lines, results first:

IC50 [nM]	Compound
< 100	CCN(C(=O)c1cc2ncccc2[nH]1)[C@H]1CCC[C@@H](NCc2cccc(N=[N+]=[N-])c2)C1 [Compound 406, N-((1S,3R)-3-((3-azidobenzyl)amino)cyclohexyl)-N-ethyl-1H-pyrrolo[3,2-b]pyridine-2-carboxamide]
> 2000	CCN(C(=O)c1cc2ccccc2[nH]1)[C@H]1CCC[C@@H](Nc2nnc(C3CC3)s2)C1 [Compound 499, N-((1S,3R)-3-((5-cyclopropyl-1,3,4-thiadiazol-2-yl)amino)cyclohexyl)-N-ethyl-1H-indole-2-carboxamide]
< 100	CCN(C(=O)c1nc2ccccc2[nH]1)[C@H]1CCC[C@@H](NCc2cc(C3CC3)no2)C1 [Compound 495, N-((1S,3R)-3-(((3-cyclopropylisoxazol-5-yl)methyl)amino)cyclohexyl)-N-ethyl-1H-benzo[d]imidazole-2-carboxamide]
500 to 2000	CCN(C(=O)c1cc2ccccc2[nH]1)[C@@H]1CCC[C@@H](N[C@H]2CCc3ccccc32)C1 [Compound 113]
< 100	O=C(c1cc2ccccc2[nH]1)N(CC(F)(F)F)[C@H]1CCC[C@@H](NCc2cccnc2)C1 [Compound 175]
< 100	CCN(C(=O)c1cc2cc(C#N)ccc2[nH]1)[C@H]1CCC[C@@H](NCc2cc3ccccc3o2)C1 [Compound 533]
< 100	CCN(C(=O)c1cc2cc(F)ccc2[nH]1)[C@H]1CCC[C@@H](NCc2ccccc2)C1 [Compound 547, N-((1S,3R)-3-(benzylamino)cyclohexyl)-N-ethyl-5-fluoro-1H-indole-2-carboxamide]
< 100	CCN(C(=O)c1cc2ccccc2[nH]1)[C@H]1CCC[C@@H](NCc2cccc(Cl)c2)C1 [Compound 134]
< 100	CCN(C(=O)c1cc2ccccc2[nH]1)[C@H]1CCC[C@@H](NCc2ccccc2)C1 [Compound 100, N-((1S,3R)-3-(benzylamino)cyclohexyl)-N-ethyl-1H-indole-2-carboxamide]
< 100	O=C(c1cc2ccccc2[nH]1)N(CC(F)(F)F)[C@H]1CCC[C@@H](NCc2ccccc2)C1 [Compound 179]
